{"source": "ChEMBL document CHEMBL5356980", "about": "“Linker optimization and activity validation of a cell surface vimentin targeted homo-dimeric peptoid antagonist for lung cancer stem cells” (Bioorg Med Chem, 2024)", "key": {"[1]": {"test_system": "NCI-H2122", "assay": "Antiproliferative activity against human NCI-H2122 cells expressing vimentin assessed as inhibition of cell growth incubated for 3 days by MTS assay", "format": "functional, cell-based", "conditions": "NCI-H2122, 72 h"}, "[2]": {"test_system": "NCI-H460", "assay": "Induction of apoptosis in human NCI-H460 cells assessed as necrotic cells at 20 uM incubated for 12 hrs by annexin V/PI staining based flow cytometry analysis (reference value: 0.20%)", "format": "functional"}, "[3]": {"test_system": "NCI-H1299", "assay": "Inhibition of cell migration of human NCI-H1299 cells incubated for 24 hrs by crystal violet staining based microscopic analysis", "format": "functional", "conditions": "dose <= 10000.0 nM"}, "[4]": {"test_system": "HBEC3-KT", "assay": "Antiproliferative activity against human HBEC3-KT cells assessed as inhibition of cell growth incubated for 3 days by MTS assay", "format": "toxicity, cell-based", "conditions": "72 h, time 3 day"}, "[5]": {"target": "Vimentin (Homo sapiens, UniProt P08670)", "sequence (P08670 whole entry)": "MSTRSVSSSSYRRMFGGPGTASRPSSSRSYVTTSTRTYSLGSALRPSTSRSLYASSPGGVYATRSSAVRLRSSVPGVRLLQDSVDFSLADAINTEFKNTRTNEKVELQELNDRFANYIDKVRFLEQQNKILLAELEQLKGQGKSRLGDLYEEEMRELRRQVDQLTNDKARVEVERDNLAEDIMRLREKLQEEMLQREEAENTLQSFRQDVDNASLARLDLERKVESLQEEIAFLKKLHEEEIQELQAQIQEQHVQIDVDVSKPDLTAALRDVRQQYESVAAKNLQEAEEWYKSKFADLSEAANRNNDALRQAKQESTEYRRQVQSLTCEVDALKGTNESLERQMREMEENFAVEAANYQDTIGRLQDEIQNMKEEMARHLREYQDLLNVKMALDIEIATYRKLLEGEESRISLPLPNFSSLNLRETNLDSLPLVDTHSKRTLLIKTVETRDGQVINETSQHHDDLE", "assay": "Binding affinity to his-tagged recombinant Vimentin (unknown origin) assessed as dissociation constant by ELISA analysis"}, "[6]": {"test_system": "NCI-H460", "assay": "Induction of apoptosis in human NCI-H460 cells assessed as viable cells at 20 uM incubated for 12 hrs by annexin V/PI staining based flow cytometry analysis (reference value: 90.9%)", "format": "functional", "conditions": "read-out: Activity"}, "[7]": {"test_system": "NCI-H1299", "assay": "Antiproliferative activity against human NCI-H1299 cells assessed as inhibition of cell growth measured for 2 hrs by MTS assay", "format": "functional, cell-based", "conditions": "NCI-H1299, 2 h"}, "[8]": {"test_system": "NCI-H460", "assay": "Antiproliferative activity against human NCI-H460 cells expressing vimentin assessed as inhibition of cell growth incubated for 3 days by MTS assay", "format": "functional, cell-based", "conditions": "NCI-H460, 72 h"}, "[9]": {"test_system": "NCI-H1299", "assay": "Induction of apoptosis in human NCI-H1299 cells assessed as necrotic cells at 20 uM incubated for 12 hrs by annexin V/PI staining based flow cytometry analysis (reference value: 2.62%)", "format": "functional"}, "[10]": {"test_system": "NCI-H460", "assay": "Induction of apoptosis in human NCI-H460 cells assessed as late apoptotic cells at 20 uM incubated for 12 hrs by annexin V/PI staining based flow cytometry analysis (reference value: 6.19%)", "format": "functional"}, "[11]": {"test_system": "NCI-H460", "assay": "Induction of apoptosis in human NCI-H460 cells assessed as early apoptotic cells at 10 uM incubated for 12 hrs by annexin V/PI staining based flow cytometry analysis (reference value: 0.00%)", "format": "functional"}, "[12]": {"test_system": "NCI-H460", "assay": "Induction of apoptosis in human NCI-H460 cells assessed as necrotic cells at 10 uM incubated for 12 hrs by annexin V/PI staining based flow cytometry analysis (reference value: 0.20%)", "format": "functional"}, "[13]": {"test_system": "NCI-H358", "assay": "Antiproliferative activity against human NCI-H358 cells expressing vimentin assessed as inhibition of cell growth incubated for 3 days by MTS assay", "format": "functional, cell-based", "conditions": "NCI-H358, 72 h"}, "[14]": {"test_system": "NCI-H1299", "assay": "Inhibition of colony formation in human NCI-H1299 cells incubated for 8 days by crystal violet staining based analysis", "format": "functional, cell-based"}, "[15]": {"test_system": "NCI-H1299", "assay": "Antiproliferative activity against human NCI-H1299 cells expressing vimentin assessed as inhibition of cell growth incubated for 3 days by MTS assay", "format": "functional, cell-based", "conditions": "NCI-H1299, 72 h"}, "[16]": {"test_system": "NCI-H460", "assay": "Induction of apoptosis in human NCI-H460 cells assessed as late apoptotic cells at 10 uM incubated for 12 hrs by annexin V/PI staining based flow cytometry analysis (reference value: 6.19%)", "format": "functional"}, "[17]": {"test_system": "NCI-H1299", "assay": "Antimigratory activity against human NCI-H1299 assessed as inhibition of cell migration incubated for 24 hrs by crystal violet staining based microscopic analysis", "format": "functional", "conditions": "NCI-H1299, 24 h"}, "[18]": {"test_system": "NCI-H1299", "assay": "Induction of apoptosis in human NCI-H1299 cells assessed as viable cells at 20 uM incubated for 12 hrs by annexin V/PI staining based flow cytometry analysis (reference value: 94.6%)", "format": "functional", "conditions": "read-out: Activity"}, "[19]": {"test_system": "NCI-H460", "assay": "Inhibition of cell migration of human NCI-H460 cells incubated for 24 hrs by crystal violet staining based microscopic analysis", "format": "functional", "conditions": "dose <= 10000.0 nM"}, "[20]": {"test_system": "NCI-H1299", "assay": "Induction of apoptosis in human NCI-H1299 cells assessed as necrotic cells at 10 uM incubated for 12 hrs by annexin V/PI staining based flow cytometry analysis (reference value: 2.62%)", "format": "functional"}, "[21]": {"test_system": "NCI-H1299", "assay": "Induction of apoptosis in human NCI-H1299 cells assessed as late apoptotic cells at 10 uM incubated for 12 hrs by annexin V/PI staining based flow cytometry analysis (reference value: 2.05%)", "format": "functional"}, "[22]": {"test_system": "NCI-H1299", "assay": "Antiproliferative activity against human NCI-H1299 cells assessed as inhibition of cell growth measured for 18 hrs by MTS assay", "format": "functional, cell-based"}, "[23]": {"test_system": "NCI-H1299", "assay": "Inhibition of cell migration of human NCI-H1299 cells assessed as reduction in wound closure incubated for 24 hrs by crystal violet staining based microscopic analysis", "format": "functional", "conditions": "NCI-H1299, 24 h"}, "[24]": {"test_system": "NCI-H460", "assay": "Inhibition of cell migration of human NCI-H460 cells assessed as reduction in wound closure incubated for 24 hrs by crystal violet staining based microscopic analysis", "format": "functional", "conditions": "NCI-H460, 24 h"}, "[25]": {"test_system": "NCI-H1299", "assay": "Induction of apoptosis in human NCI-H1299 cells assessed as early apoptotic cells at 10 uM incubated for 12 hrs by annexin V/PI staining based flow cytometry analysis (reference value: 0.73%)", "format": "functional"}, "[26]": {"test_system": "NCI-H1299", "assay": "Inhibition of cell migration of human NCI-H1299 cells assessed as reduction in wound distance at 10 uM incubated for 24 hrs by crystal violet staining based microscopic analysis", "format": "functional"}, "[27]": {"test_system": "NCI-H460", "assay": "Inhibition of colony formation in human NCI-H460 cells at 300 nM incubated for 8 days by crystal violet staining based analysis", "format": "functional, cell-based", "conditions": "time 8.0 day"}, "[28]": {"test_system": "NCI-H2009", "assay": "Antiproliferative activity against human NCI-H2009 cells expressing vimentin assessed as inhibition of cell growth incubated for 3 days by MTS assay", "format": "functional, cell-based", "conditions": "NCI-H2009, 72 h"}, "[29]": {"test_system": "NCI-H1299", "assay": "Induction of apoptosis in human NCI-H1299 cells assessed as late apoptotic cells at 20 uM incubated for 12 hrs by annexin V/PI staining based flow cytometry analysis (reference value: 2.05%)", "format": "functional"}, "[30]": {"test_system": "NCI-H460", "assay": "Induction of apoptosis in human NCI-H460 cells assessed as early apoptotic cells at 20 uM incubated for 12 hrs by annexin V/PI staining based flow cytometry analysis (reference value: 0.00%)", "format": "functional"}, "[31]": {"test_system": "NCI-H1299", "assay": "Induction of apoptosis in human NCI-H1299 cells assessed as viable cells at 10 uM incubated for 12 hrs by annexin V/PI staining based flow cytometry analysis (reference value: 94.6%)", "format": "functional", "conditions": "read-out: Activity"}, "[32]": {"test_system": "NCI-H460", "assay": "Inhibition of cell migration of human NCI-H460 cells assessed as reduction in wound distance at 10 uM incubated for 24 hrs by crystal violet staining based microscopic analysis", "format": "functional"}, "[33]": {"test_system": "NCI-H460", "assay": "Induction of apoptosis in human NCI-H460 cells assessed as viable cells at 10 uM incubated for 12 hrs by annexin V/PI staining based flow cytometry analysis (reference value: 90.9%)", "format": "functional", "conditions": "read-out: Activity"}, "[34]": {"test_system": "NCI-H1299", "assay": "Induction of apoptosis in human NCI-H1299 cells assessed as early apoptotic cells at 20 uM incubated for 12 hrs by annexin V/PI staining based flow cytometry analysis (reference value: 0.73%)", "format": "functional"}, "[35]": {"test_system": "NCI-H460", "assay": "Inhibition of colony formation in human NCI-H460 cells incubated for 8 days by crystal violet staining based analysis", "format": "functional, cell-based"}}, "note": "The source made the active and inactive calls. No cut-off for these calls is given here."}
{"smiles": "COCCN(CC(=O)N[C@@H](CCCCN)C(=O)N[C@H](C)C(=O)NCC(=O)NCCCCC(NC(=O)CNC(=O)[C@@H](C)NC(=O)[C@H](CCCCN)NC(=O)CN(CCOC)C(=O)CN(Cc1ccc2c(c1)OCO2)C(=O)CN(CC(C)C)C(=O)CN(CCCCN)C(=O)CN(CCCCN)C(=O)CN(CC(C)C)C(=O)CNc1cccc(C(=O)c2ccccc2)c1)C(N)=O)C(=O)CN(Cc1ccc2c(c1)OCO2)C(=O)CN(CC(C)C)C(=O)CN(CCCCN)C(=O)CN(CCCCN)C(=O)CN(CC(C)C)C(=O)CNc1ccc(C(=O)c2ccccc2)cc1", "note": "(some centres not stated)", "values": [{"measurement": "IC50", "setting": "[1]", "result": 30.5, "unit": "µM"}, {"measurement": "Activity", "setting": "[2]", "result": 12.8, "unit": "%"}, {"measurement": "inhibition", "setting": "[3]", "result": "Dose-Dependent Effect"}, {"measurement": "Activity", "setting": "[4]", "result": "Non-Toxic"}, {"measurement": "Kd", "setting": "[5]", "result": "~0.1", "unit": "µM"}, {"measurement": "viability at 20 µM", "setting": "[6]", "result": 0.06, "unit": "%"}, {"measurement": "IC50", "setting": "[7]", "result": "~21", "unit": "µM"}, {"measurement": "IC50", "setting": "[8]", "result": 8.6, "unit": "µM"}, {"measurement": "Activity", "setting": "[9]", "result": 1.37, "unit": "%"}, {"measurement": "Activity", "setting": "[10]", "result": 45.5, "unit": "%"}, {"measurement": "Activity", "setting": "[11]", "result": 1.15, "unit": "%"}, {"measurement": "Activity", "setting": "[12]", "result": 1.3, "unit": "%"}, {"measurement": "IC50", "setting": "[13]", "result": 12.8, "unit": "µM"}, {"measurement": "IC50", "setting": "[14]; NCI-H1299, 192 h", "result": 0.8, "unit": "µM"}, {"measurement": "inhibition", "setting": "[14]; time 8.0 day", "result": "Dose-Dependent Effect"}, {"measurement": "IC50", "setting": "[15]", "result": 6.7, "unit": "µM"}, {"measurement": "Activity", "setting": "[16]", "result": 15.3, "unit": "%"}, {"measurement": "IC50", "setting": "[17]", "result": "~2", "unit": "µM"}, {"measurement": "viability at 20 µM", "setting": "[18]", "result": 21.3, "unit": "%"}, {"measurement": "inhibition", "setting": "[19]", "result": "Dose-Dependent Effect"}, {"measurement": "Activity", "setting": "[20]", "result": 0.98, "unit": "%"}, {"measurement": "Activity", "setting": "[21]", "result": 8.1, "unit": "%"}, {"measurement": "Activity", "setting": "[22]", "result": "inactive"}, {"measurement": "IC50", "setting": "[23]", "result": 2, "unit": "µM"}, {"measurement": "IC50", "setting": "[24]", "result": 4, "unit": "µM"}, {"measurement": "Activity", "setting": "[25]", "result": 0.44, "unit": "%"}, {"measurement": "inhibition", "setting": "[26]", "result": "Active"}, {"measurement": "inhibition", "setting": "[27]", "result": "Active"}, {"measurement": "IC50", "setting": "[28]", "result": 14.3, "unit": "µM"}, {"measurement": "Activity", "setting": "[29]", "result": 26, "unit": "%"}, {"measurement": "Activity", "setting": "[30]", "result": 1.09, "unit": "%"}, {"measurement": "viability at 10 µM", "setting": "[31]", "result": 50.5, "unit": "%"}, {"measurement": "inhibition", "setting": "[32]", "result": "Active"}, {"measurement": "viability at 10 µM", "setting": "[33]", "result": 62.2, "unit": "%"}, {"measurement": "Activity", "setting": "[34]", "result": 0.46, "unit": "%"}, {"measurement": "IC50", "setting": "[35]; NCI-H460, 192 h", "result": 0.4, "unit": "µM"}, {"measurement": "inhibition", "setting": "[35]; time 8.0 day", "result": "Dose-Dependent Effect"}]}
